Measurements reported in patent publication US20240390331A1, “ORAL BENDAMUSTINE FORMULATIONS” (TUBE Pharmaceuticals GmbH, priority 2017, published 2024).

What was measured:
[1] = PK of bendamustine capsule formulations vs 60 min IV infusion in beagle dogs, cross over (Example 7); settings: dog, plasma
Excerpt: As bioanalytical method a fast and reliable method was used to determine bendamustine and its main metabolite γ-hydroxybendamustine (M3 metabolite) simultaneously in plasma of different species (Srinivas N R et al., Drug Res (Stuttg), 2016, 66(7), 351-356; Chandrashekar D V et al., Drug Res (Stuttg), 2017, doi: 10.1055/s-0043-108124).
The oral bioavailability and the PK profile of formulations of bendamustine with 2-hydroxypropyl-β-cyclodextrin and β-cyclodextrin were compared in beagle dogs.
Capsules with an amount of bendamustine hydrochloride for each of the two formulations to reach a dose of 12 mg/kg were administered to beagle dogs using a cross over design and compared to 60 min IV infusion administration. Capsule formulations were stored between 2-8° C. The respective IV formulation was prepared fresh immediately prior to dosing.

[2] = bendamustine itself, Preiss R et al. 1985; cited from earlier work

For Cl.Cn1c(CCCC(=O)O)nc2cc(N(CCCl)CCCl)ccc21 [bendamustine, 4-(5-(bis-(2-chloro-ethyl)-amino)-1-methyl-1H-benzimidazol-2-yl)-butyric acid hydrochloride], the AUC [1] is given as 3800 ng·h/mL, the Cmax [1] is given as 4300 ng/mL and the oral bioavailability [2] is given as “about 56%”.
